Laboratory results from US20260285850A1, “SUBSTITUTED OXAZOLIDINONES AND IMIDAZOLINONES AS HERBICIDES” (FMC CORPORATION, priority 2023, published 2026).

How the values were obtained:
Type in all cases: in vivo
[1] = tested on: wheat (Triticum aestivum); test: Test A postemergence application, visual injury rating 0-100
Method in brief: (§1)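 Plants in a loam and sand soil blend were treated with each test chemical, in a non-phytotoxic solvent system including surfactant, either sprayed on seeded soil before emergence or applied after emergence at the one- to two-leaf stage. Ten days later in the greenhouse, plants were compared with untreated controls and visually rated from 0 (no effect) to 100 (complete control).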

kochia (Bassia scoparia) [2] = test: as above
Method in brief: as §1

[3] = tested on: oat, wild (wild oat, Avena fatua); test: as above
Method in brief: as §1

[4] = tested on: horseweed (Erigeron canadensis); test: as above
Method in brief: as §1

[5] = tested on: palmer (palmer amaranth, palmer pigweed, Amaranthus palmeri); test: as above
Method in brief: as §1

[6] = tested on: ragweed (common ragweed, Ambrosia artemisiifolia); test: as above
Method in brief: as §1

[7] = tested on: blackgrass (Alopecurus myosuroides); test: as above
Method in brief: as §1

soybean (Glycine max) [8] = test: as above
Method in brief: as §1

[9] = tested on: green foxtail (Setaria viridis); test: as above
Method in brief: as §1

[10] = tested on: ryegrass, Italian (italian ryegrass, Lolium multiflorum); test: as above
Method in brief: as §1

[11] = tested on: barnyardgrass (Echinochloa crus-galli); test: as above
Method in brief: as §1

corn (Zea mays) [12] = test: as above
Method in brief: as §1

[13] = tested on: wheat (Triticum aestivum); test: Test A preemergence soil spray, visual injury rating 0-100; conditions: 10 days
Method in brief: as §1

kochia (Bassia scoparia) [14] = test: as above; conditions: 10 days
Method in brief: as §1

[15] = tested on: oat, wild (wild oat, Avena fatua); test: as above; conditions: 10 days
Method in brief: as §1

[16] = tested on: palmer (palmer amaranth, palmer pigweed, Amaranthus palmeri); test: as above; conditions: 10 days
Method in brief: as §1

[17] = tested on: ragweed (common ragweed, Ambrosia artemisiifolia); test: as above; conditions: 10 days
Method in brief: as §1

[18] = tested on: blackgrass (Alopecurus myosuroides); test: as above; conditions: 10 days
Method in brief: as §1

soybean (Glycine max) [19] = test: as above; conditions: 10 days
Method in brief: as §1

[20] = tested on: green foxtail (Setaria viridis); test: as above; conditions: 10 days
Method in brief: as §1

[21] = tested on: ryegrass, Italian (italian ryegrass, Lolium multiflorum); test: as above; conditions: 10 days
Method in brief: as §1

[22] = tested on: barnyardgrass (Echinochloa crus-galli); test: as above; conditions: 10 days
Method in brief: as §1

corn (Zea mays) [23] = test: as above; conditions: 10 days
Method in brief: as §1

[24] = tested on: sedge, umbrella (small-flower umbrella sedge, Cyperus difformis); test: Test B flooded paddy test, visual plant response rating 0-100; conditions: 250 g ai/ha, Flood, applied to paddy water, evaluated after 13 days
Method in brief: (§2)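 Visual scores versus untreated controls were recorded 13 days after treatment of greenhouse-held plants. At the 2-leaf stage, pots were flooded 3 cm above the soil surface and compounds added straight to the water.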

[25] = tested on: ducksalad (Heteranthera limosa); test: as above; conditions: 250 g ai/ha, Flood, applied to paddy water, evaluated after 13 days
Method in brief: as §2

rice (Oryza sativa) = test: as above; conditions: 250 g ai/ha, Flood, applied to paddy water, evaluated after 13 days
Method in brief: as §2

[26] = tested on: barnyardgrass (Echinochloa crusgalli); test: as above; conditions: 250 g ai/ha, Flood, applied to paddy water, evaluated after 13 days
Method in brief: as §2

[27] = 62 g ai/ha, postemergence, 10 days, 0 = no effect, 100 = complete control
[28] = Postemergence, 16 g ai/ha, greenhouse 10 days, 0 no effect, 100 complete control
[29] = 62 g ai/ha, 0 = no effect, 100 = complete control

CC1(C(=O)NC2CC=C(C(=O)O)C2)CN(c2cc(F)cc(Cl)c2)C(=O)O1 (centres unmarked) [Compound 159]
Wheat plant response rating (0-100) [1, 27]: 90 | Wheat plant response rating (0 to 100 scale) [1, 28]: 30 | Kochia plant response rating (0-100) (kochia (Bassia scoparia) [2]; [27]): 80 | Kochia plant response rating (0 to 100 scale) (kochia (Bassia scoparia) [2]; [28]): 70 | Oat, Wild plant response rating (0-100) [3, 27]: 30 | Oat, Wild plant response rating (0 to 100 scale) [3, 28]: 30 | Horseweed plant response rating (0-100) [4, 27]: 80 | Horseweed plant response rating (0 to 100 scale) [4, 28]: 50 | Pigweed, Palmer plant response rating (0-100) [5, 27]: 90 | Pigweed, Palmer plant response rating (0 to 100 scale) [5, 28]: 80 | Ragweed plant response rating (0-100) [6, 27]: 70 | Ragweed plant response rating (0 to 100 scale) [6, 28]: 40 | Blackgrass plant response rating (0-100) [7, 27]: 90 | Blackgrass plant response rating (0 to 100 scale) [7, 28]: 80 | Soybean plant response rating (0-100) (soybean (Glycine max) [8]; [27]): 80 | Soybean plant response rating (0 to 100 scale) (soybean (Glycine max) [8]; [28]): 80 | Foxtail, Green plant response rating (0-100) [9, 27]: 90 | Foxtail, Green plant response rating (0 to 100 scale) [9, 28]: 70 | Ryegrass, Italian plant response rating (0-100) [10, 27]: 100 | Ryegrass, Italian plant response rating (0 to 100 scale) [10, 28]: 60 | Barnyardgrass plant response rating (0-100) [11, 27]: 100 | Barnyardgrass plant response rating (0 to 100 scale) [11, 28]: 100 | Corn plant response rating (0-100) (corn (Zea mays) [12]; [27]): 100 | Corn plant response rating (0 to 100 scale) (corn (Zea mays) [12]; [28]): 100 | Wheat plant response rating ([13]; 16 g ai/ha, 0 to 100 scale): 50 | Wheat plant response rating (0-100) [13, 29]: 90 | Kochia plant response rating (kochia (Bassia scoparia) [14]; 16 g ai/ha, 0 to 100 scale): 0 | Kochia plant response rating (0-100) (kochia (Bassia scoparia) [14]; [29]): 90 | Oat, Wild plant response rating ([15]; 16 g ai/ha, 0 to 100 scale): 0 | Oat, Wild plant response rating (0-100) [15, 29]: 20 | Pigweed, Palmer plant response rating ([16]; 16 g ai/ha, 0 to 100 scale): 30 | Pigweed, Palmer plant response rating (0-100) [16, 29]: 100 | Ragweed plant response rating ([17]; 16 g ai/ha, 0 to 100 scale): 0 | Ragweed plant response rating (0-100) [17, 29]: 0 | Blackgrass plant response rating ([18]; 16 g ai/ha, 0 to 100 scale): 0 | Blackgrass plant response rating (0-100) [18, 29]: 0 | Soybean plant response rating (soybean (Glycine max) [19]; 16 g ai/ha, 0 to 100 scale): 0 | Soybean plant response rating (0-100) (soybean (Glycine max) [19]; [29]): 50 | Foxtail, Green plant response rating ([20]; 16 g ai/ha, 0 to 100 scale): 20 | Foxtail, Green plant response rating (0-100) [20, 29]: 100 | Ryegrass, Italian plant response rating ([21]; 16 g ai/ha, 0 to 100 scale): 30 | Ryegrass, Italian plant response rating (0-100) [21, 29]: 90 | Barnyardgrass plant response rating ([22]; 16 g ai/ha, 0 to 100 scale): 0 | Barnyardgrass plant response rating (0-100) [22, 29]: 80 | Corn plant response rating (corn (Zea mays) [23]; 16 g ai/ha, 0 to 100 scale): 20 | Corn plant response rating (0-100) (corn (Zea mays) [23]; [29]): 50 | Plant response rating, Sedge, Umbrella (0 to 100 scale, 0 is no effect and 100 is complete control) [24]: 100 | Plant response rating, Ducksalad (0 to 100 scale, 0 is no effect and 100 is complete control) [25]: 100 | Plant response rating, Rice (0 to 100 scale, 0 is no effect and 100 is complete control) (rice (Oryza sativa)): 55 | Plant response rating, Barnyardgrass (0 to 100 scale, 0 is no effect and 100 is complete control) [26]: 95
